Laboratory results published in patent US20250000865A1, “COMPOUND FOR REDUCING URIC ACID LEVELS” (NEWSOARA BIOPHARMA CO., LTD., priority 2021, published 2025).

Tested on: healthy subjects
Assay: Phase I clinical trial, multiple-dose groups (once a day, 7 consecutive days): uric acid index before and after treatment
Assay type: in vivo, human
Conditions: for Uric acid (UA) Mean (standard deviation) / Uric acid (UA) Median / Uric acid (UA) Minimum value / Uric acid (UA) maximum value / Uric acid (UA) Changes over baseline at last visit (on day 14), Mean (standard deviation) / Uric acid (UA) Changes over baseline at last visit (on day 14), Median / Uric acid (UA) Changes over baseline at last visit (on day 14), Minimum value / Uric acid (UA) Changes over baseline at last visit (on day 14), maximum value / Uric acid (UA) Changes over baseline on day 2, Mean (standard deviation) / Uric acid (UA) Changes over baseline on day 2, Median / Uric acid (UA) Changes over baseline on day 2, Minimum value / Uric acid (UA) Changes over baseline on day 2, maximum value / Uric acid (UA) Changes over baseline on day 11, Mean (standard deviation) / Uric acid (UA) Changes over baseline on day 11, Median / Uric acid (UA) Changes over baseline on day 11, Minimum value / Uric acid (UA) Changes over baseline on day 11, maximum value / Uric acid (UA) Changes over baseline on days 4-6, Mean (standard deviation) / Uric acid (UA) Changes over baseline on days 4-6, Median / Uric acid (UA) Changes over baseline on days 4-6, Minimum value / Uric acid (UA) Changes over baseline on days 4-6, maximum value: N = 9
Procedure: The changes of uric acid levels in subjects in single-dose and multi-dose groups of Compound I are shown in FIG. 1A (single dose of 6 mg and single dose of 10 mg), FIG. 1B (single dose of 20 mg and single dose of 30 mg), and FIG. 2 (multi-dose of 10 mg and multi-dose of 20 mg). The corresponding results are also shown in Tables 1.1, 1.2, 1.3, and 2.1, and tables 2.2, 2.3, and 2.4.

[1] = Baseline, multiple dose 10 mg once a day 7 days
[2] = Baseline, multiple dose 20 mg once a day 7 days
[3] = Day 2, multiple dose 10 mg once a day 7 days
[4] = Day 2, multiple dose 20 mg once a day 7 days
[5] = Day 11, multiple dose 10 mg once a day 7 days
[6] = Day 11, multiple dose 20 mg once a day 7 days
[7] = Days 4-6, multiple dose 10 mg once a day 7 days
[8] = Days 4-6, multiple dose 20 mg once a day 7 days
[9] = Last visit (day 14), multiple dose 10 mg once a day 7 days
[10] = Last visit (day 14), multiple dose 20 mg once a day 7 days
[11] = multiple dose 10 mg once a day 7 days
[12] = multiple dose 20 mg once a day 7 days

In the case of COc1cccc2c1ncc1c(=O)n(C3CCC(C(=O)O)CC3)c(=O)n(-c3cccc(Cl)c3)c12 (centres unmarked) [Compound I, 4-[1-(3-chlorophenyl)-7-methoxy-2,4-dioxo-pyrimido[5,4-c]quinolin-3-yl]cyclohexanecarboxylic acid], the “Uric acid (UA) Mean (standard deviation)” value [1] is reported as 314.4 (84.59) μmol/L, the “Uric acid (UA) Median” value [1] is reported as 290.0 µmol/L and the “Uric acid (UA) Minimum value” [1] is reported as 215 µmol/L. For the same molecule, the “Uric acid (UA) maximum value” [1] was 452 µmol/L, the “Uric acid (UA) Mean (standard deviation)” value [2] was 337.2 (50.38) μmol/L and the “Uric acid (UA) Median” value [2] was 349.0 µmol/L. For the same molecule, the “Uric acid (UA) Minimum value” [2] was 259 µmol/L, the “Uric acid (UA) maximum value” [2] was 400 µmol/L and the “Uric acid (UA) Mean (standard deviation)” value [3] was 254.9 (74.41) μmol/L. For the same molecule, the “Uric acid (UA) Median” value [3] was 248.0 µmol/L, the “Uric acid (UA) Minimum value” [3] was 155 µmol/L and the “Uric acid (UA) maximum value” [3] was 397 µmol/L. The “Uric acid (UA) Mean (standard deviation)” value [4] was 221.6 (63.82) μmol/L, the “Uric acid (UA) Median” value [4] was 216.0 µmol/L and the “Uric acid (UA) Minimum value” [4] was 142 µmol/L. For the same molecule, the “Uric acid (UA) maximum value” [4] was 373 µmol/L, the “Uric acid (UA) Mean (standard deviation)” value [5] was 325.1 (67.57) μmol/L and the “Uric acid (UA) Median” value [5] was 314.0 µmol/L. The “Uric acid (UA) Minimum value” [5] was 222 µmol/L, the “Uric acid (UA) maximum value” [5] was 439 µmol/L and the “Uric acid (UA) Mean (standard deviation)” value [6] was 341.8 (58.10) μmol/L. The “Uric acid (UA) Median” value [6] was 323.0 µmol/L, the “Uric acid (UA) Minimum value” [6] was 262 µmol/L and the “Uric acid (UA) maximum value” [6] was 460 µmol/L. For the same molecule, the “Uric acid (UA) Mean (standard deviation)” value [7] was 201.8 (58.87) μmol/L, the “Uric acid (UA) Median” value [7] was 204.0 µmol/L and the “Uric acid (UA) Minimum value” [7] was 119 µmol/L. For the same molecule, the “Uric acid (UA) maximum value” [7] was 307 µmol/L, the “Uric acid (UA) Mean (standard deviation)” value [8] was 158.0 (51.31) μmol/L and the “Uric acid (UA) Median” value [8] was 140.0 µmol/L. For the same molecule, the “Uric acid (UA) Minimum value” [8] was 105 µmol/L, the “Uric acid (UA) maximum value” [8] was 267 µmol/L and the “Uric acid (UA) Mean (standard deviation)” value [9] was 326.9 (74.58) μmol/L. For the same molecule, the “Uric acid (UA) Median” value [9] was 337.0 µmol/L, the “Uric acid (UA) Minimum value” [9] was 219 µmol/L and the “Uric acid (UA) maximum value” [9] was 422 µmol/L. For the same molecule, the “Uric acid (UA) Mean (standard deviation)” value [10] was 378.4 (37.55) μmol/L, the “Uric acid (UA) Median” value [10] was 376.0 µmol/L and the “Uric acid (UA) Minimum value” [10] was 309 µmol/L. For the same molecule, the “Uric acid (UA) maximum value” [10] was 440 µmol/L, the “uric acid level on the following days (days 4-6)” value (multi-dose groups) was “continuous decrease” and the “uric acid level the next day after administration” value (multi-dose groups, certain dose dependence) was “decreases obviously”. For the same molecule, the “Uric acid (UA) Changes over baseline at last visit (on day 14), Mean (standard deviation)” value [11] was 12.4 (37.22) μmol/L, the “Uric acid (UA) Changes over baseline at last visit (on day 14), Median” value [11] was 6.0 µmol/L and the “Uric acid (UA) Changes over baseline at last visit (on day 14), Minimum value” [11] was -45 µmol/L. For the same molecule, the “Uric acid (UA) Changes over baseline at last visit (on day 14), maximum value” [11] was 58 µmol/L, the “Uric acid (UA) Changes over baseline on day 2, Mean (standard deviation)” value [11] was −59.6 (40.77) μmol/L and the “Uric acid (UA) Changes over baseline on day 2, Median” value [11] was -50.0 µmol/L. The “Uric acid (UA) Changes over baseline on day 2, Minimum value” [11] was -135 µmol/L, the “Uric acid (UA) Changes over baseline on day 2, maximum value” [11] was 6 µmol/L and the “Uric acid (UA) Changes over baseline on day 11, Mean (standard deviation)” value [11] was 10.7 (31.86) μmol/L. For the same molecule, the “Uric acid (UA) Changes over baseline on day 11, Median” value [11] was 15.0 µmol/L, the “Uric acid (UA) Changes over baseline on day 11, Minimum value” [11] was -52 µmol/L and the “Uric acid (UA) Changes over baseline on day 11, maximum value” [11] was 60 µmol/L. The “Uric acid (UA) Changes over baseline on days 4-6, Mean (standard deviation)” value [11] was −112.7 (57.68) μmol/L, the “Uric acid (UA) Changes over baseline on days 4-6, Median” value [11] was -118.0 µmol/L and the “Uric acid (UA) Changes over baseline on days 4-6, Minimum value” [11] was -234 µmol/L. For the same molecule, the “Uric acid (UA) Changes over baseline on days 4-6, maximum value” [11] was -35 µmol/L, the “Uric acid (UA) Changes over baseline at last visit (on day 14), Mean (standard deviation)” value [12] was 41.2 (44.32) μmol/L and the “Uric acid (UA) Changes over baseline at last visit (on day 14), Median” value [12] was 40.0 µmol/L. The “Uric acid (UA) Changes over baseline at last visit (on day 14), Minimum value” [12] was -11 µmol/L, the “Uric acid (UA) Changes over baseline at last visit (on day 14), maximum value” [12] was 135 µmol/L and the “Uric acid (UA) Changes over baseline on day 2, Mean (standard deviation)” value [12] was −115.7 (55.40) μmol/L. For the same molecule, the “Uric acid (UA) Changes over baseline on day 2, Median” value [12] was -142.0 µmol/L, the “Uric acid (UA) Changes over baseline on day 2, Minimum value” [12] was -184 µmol/L and the “Uric acid (UA) Changes over baseline on day 2, maximum value” [12] was -26 µmol/L. The “Uric acid (UA) Changes over baseline on day 11, Mean (standard deviation)” value [12] was 4.6 (43.38) μmol/L, the “Uric acid (UA) Changes over baseline on day 11, Median” value [12] was 2.0 µmol/L and the “Uric acid (UA) Changes over baseline on day 11, Minimum value” [12] was -52 µmol/L. For the same molecule, the “Uric acid (UA) Changes over baseline on day 11, maximum value” [12] was 67 µmol/L, the “Uric acid (UA) Changes over baseline on days 4-6, Mean (standard deviation)” value [12] was −179.2 (54.55) μmol/L and the “Uric acid (UA) Changes over baseline on days 4-6, Median” value [12] was -175.0 µmol/L. The “Uric acid (UA) Changes over baseline on days 4-6, Minimum value” [12] was -260 µmol/L and the “Uric acid (UA) Changes over baseline on days 4-6, maximum value” [12] was -108 µmol/L.
